Data on 1 compound can be found in PMC7465040, “Cytotoxic and Anti-Plasmodial Activities of Stephania dielsiana Y.C. Wu Extracts and the Isolated Compounds” (Molecules, 2020).

For orientation: IC50 means the point on the concentration scale where inhibition reaches its midpoint.

Where two headings read alike, the source gives them in different places.

One test concerns HeLa cells. Kind of test: Cell cycle analysis, propidium iodide flow cytometry. The class given is cell-based, human. The following applies: asynchronous HeLa, 10 μM, 12–72 h. On the procedure: Cell cycle analysis: Propidium iodide staining and flow cytometry analysis were carried out as described previously with minor modifications. Briefly, 250,000 HeLa cells (50,000 cells/mL) were treated with 10 μM oxostephanine (1) and harvested at the indicated time points. All experiments were carried out at least twice.
On the technique in general: Flow cytometry measures light scatter and fluorescence of single cells or particles in a stream.

Test [1] concerns phosphorylation of histone H3 on Ser-10 in HeLa cells. Kind of test: Western blot, histone H3 Ser-10 phosphorylation. The following applies: 12 h. The class given is cell-based, human. On the procedure: Western Blot analysis: Western blotting was carried out as described previously. The primary antibodies used were from Cell Signaling (Histone H3; p-Histone H3^S10 and Phospho-Aurora A (Thr288)/Aurora B (Thr232)/Aurora C (Thr198)) and used at recommended dilution. For cell synchronization at prometaphase, HeLa cells were treated with 50 ng/mL nocodazole (NZ) (Santa Cruz Biotechnology) for 12 h. All experiments were carried out at least twice.

For the next test, the target named is T1, Aurora A (Homo sapiens, UniProt O14965).
T1 construct: purchased Promega
T1 sequence (O14965 1-403): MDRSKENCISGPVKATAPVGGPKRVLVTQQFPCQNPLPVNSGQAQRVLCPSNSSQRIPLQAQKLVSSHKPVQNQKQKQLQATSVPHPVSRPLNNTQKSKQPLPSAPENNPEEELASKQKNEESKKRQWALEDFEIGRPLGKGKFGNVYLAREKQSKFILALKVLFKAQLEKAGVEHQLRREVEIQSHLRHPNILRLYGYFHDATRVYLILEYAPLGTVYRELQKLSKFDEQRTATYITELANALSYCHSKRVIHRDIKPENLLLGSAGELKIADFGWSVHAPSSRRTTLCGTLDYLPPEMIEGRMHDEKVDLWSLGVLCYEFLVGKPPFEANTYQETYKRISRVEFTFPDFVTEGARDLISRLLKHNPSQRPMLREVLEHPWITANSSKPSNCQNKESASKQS
Kind of test: In vitro kinase assay (ADP-Glo), Aurora A. The class given is biochemical. The following applies: ± standard deviation, n = 2. On the procedure: (§1) In vitro kinase assay: The Aurora A and B kinase assays were carried out using the Promega ADP-Glo based Kinase Activity Profiling system. The protocols for the Aurora A/(Myelin Basic Protein (MBP) and Aurora B/MBP assay kits were according to those recommended by the suppliers. The concentration range used was from 20 μM–39.1 nM in 384-well plates. The luminescent output from the kinase assay was read on a Biotek Synergy H4 plate reader.
Background: ADP-Glo first removes unused ATP, then detects ADP through luciferase.

The subject of a further test is MDA-MB-231. As to the kind of experiment: SRB cell proliferation assay, MDA-MB-231. The format is cell-based, human. On the procedure:
(§2) In vitro anticancer study: The in vitro anti-proliferative tests were carried out as described previously, using aliquots of the cell lines used therein. Briefly, HeLa, MDA-MB-231 and MDA-MB-468, MCF7, and 184B5 and MCF 10A cell lines were purchased from ATCC. The identity of the cell lines presented in this study were verified by short tandem repeat profiling by Genetica DNA Laboratories (www.celllineauthentication.com) (April 8, 2015). MCF10A was grown in DMEM F12 medium supplemented with 0.02 μg/mL epidermal growth factor, 10% FBS, 10 μg/mL insulin and […] hydrocortisone. MDA-MB-468 were grown in DMEM supplemented with 10% FBS and antibiotics cocktail (100 μg/mL streptomycin, 100 units/mL penicillin and 250 ng/mL amphotericin B). SRB cell proliferation assays were carried out as previously described, with some minor modifications. The concentration range for all tested cell lines were from 100–0.39 μg/mL for extracts and 100–0.39 μM for pure compounds. […] All experiments were carried out at least twice.

A further test concerns MCF7. As to the kind of experiment: SRB cell proliferation assay, MCF7. The format is cell-based, human. On the procedure:
as §2

Another test deals with T2, Aurora B (Homo sapiens, UniProt Q96GD4).
T2 construct: purchased Promega
As to the kind of experiment: In vitro kinase assay (ADP-Glo), Aurora B. The format is biochemical. The following applies: ± standard deviation, n = 2. On the procedure:
as §1

A further test has as its system HeLa. As to the kind of experiment: SRB cell proliferation assay, HeLa. The following applies: for IC50: 72 h, Table 2A, SRB, read-out: IC50 (μM ± SD) HeLa. The class given is cell-based, human. On the procedure: as §2
The test system of test [2] is chloroquine-resistant W2 P. falciparum strain. As to the kind of experiment: In vitro anti-plasmodial assay (HRP2 ELISA), W2. The class given is cell-based, Plasmodium falciparum. The following applies: for IC50: 72 h, HRP2 ELISA, mean of five experiments, read-out: IC50 (μM ± SD) W2. On the procedure: (§3) Parasites were grown in A-positive human blood (Etablissement Français du Sang, Marseille, France) under controlled atmospheric conditions that consisted of 10% O2, 5% CO2, and 85% N2 at 37 °C with a humidity of 95%.
(§4) In vitro anti-plasmodial assay: The two P. falciparum strains 3D7 and W2 were synchronized twice with sorbitol before use. The clonality of these strains was verified both in our laboratory and in an independent laboratory from the Worldwide Anti-malarial Resistance Network (WWARN) by PCR genotyping of the polymorphic genetic markers msp1 and msp2 and microsatellite loci. The compounds were re-suspended in methanol or DMSO 5% (v/v) and then diluted in methanol to obtain final concentrations ranging from 0.008 to 500 μg/mL (final concentration of 0.5% of methanol or DMSO). […] The plates were incubated for 72 h at 37 °C in controlled atmospheric conditions 5% CO2, 10% O2, and […]. After thawing the plates, haemolysed cultures were homogenized by vortexing the plates. Both the success of the drug susceptibility assay and the appropriate volume of haemolysed culture to use for each assay were determined for each clinical isolate during a preliminary HRP2 ELISA. Both the pre-test and subsequent ELISA assays were performed using a commercial kit (Malaria Ag Celisa, ref KM2159, Cellabs PTY LTD, Brookvale, Australia) according to the manufacturer’s recommendation. The optical density (OD) of each sample was measured with a spectrophotometer (Safire 2, Tecan, Lyon, France). […] The anti-plasmodial in vitro assay was performed five times for each product. The IC50 values represented the mean value calculated from five experiments. According to Hout, a selectivity index (SI) was based on the ratio between anti-parasitic and cytotoxic activities. In the case of our study, a SI was calculated between non-tumorigenic cell line 184B5 and parasites 3D7 or W2 and/or MCF10A and these two parasites.
In general terms: An ELISA detects its analyte on a solid surface through an enzyme-linked reagent.

The test system of test [3] is chloroquine-susceptible 3D7 P. falciparum strain. Kind of test: In vitro anti-plasmodial assay (HRP2 ELISA), 3D7. The following applies: for IC50: 72 h, HRP2 ELISA, mean of five experiments, read-out: IC50 (μM ± SD) 3D7. The class given is cell-based, Plasmodium falciparum. On the procedure: as §3, §4

T2 sequence (Q96GD4 whole entry): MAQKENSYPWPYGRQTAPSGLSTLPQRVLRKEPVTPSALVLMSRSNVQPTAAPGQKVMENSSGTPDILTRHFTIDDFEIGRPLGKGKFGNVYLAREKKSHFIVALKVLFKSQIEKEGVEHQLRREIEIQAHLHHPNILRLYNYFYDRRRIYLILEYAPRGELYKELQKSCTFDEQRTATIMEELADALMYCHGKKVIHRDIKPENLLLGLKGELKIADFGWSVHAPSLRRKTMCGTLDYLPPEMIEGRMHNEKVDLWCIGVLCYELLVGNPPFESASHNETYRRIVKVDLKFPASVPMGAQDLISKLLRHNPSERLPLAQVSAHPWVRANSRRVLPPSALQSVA

In the case of `COc1cccc2c1C(=O)c1nccc3cc4c(c-2c13)OCO4` [Oxostephanine 1, oxostephanine], the Cell cycle distribution entry in the test with HeLa cells is “induces a transient G2/M arrest and apoptotic cell death”. Moreover, the “Phosphorylation of histone H3 on Ser-10” value in test [1] is recorded as “dramatically downregulated”. Further, the IC50 at Aurora A came to 0.422 ± 0.13 µM; in the test on MDA-MB-231 (Homo sapiens, MDA-MB-231, Table 2A, SRB, 72 h, read-out: IC50 (μM ± SD) MDA-MB-231) it was 2.67 ± 0.29 µM; with MCF7 (Homo sapiens, MCF7, Table 2A, SRB, 72 h, read-out: IC50 (μM ± SD) MCF7) it was 4.35 ± 1.2 µM; at Aurora B it was 0.952 ± 0.467 µM; in the test with HeLa (Homo sapiens, HeLa) it was 1.73 µM; in the test with HeLa, 1.76 ± 0.2 µM. In addition, the half-maximal inhibitory concentration (IC50) was 216 ± 31.5 µM in [2]; 216 to 226 µM in [2] (Plasmodium falciparum, W2, 72 h); 63.9 ± 18.4 µM in test [3]; 63.9 to 276 µM in [3] (Plasmodium falciparum, 3D7, 72 h). Moreover, in the test on MDA-MB-231 (Table 2B, non-cancer 184B5 vs cancer MDA-MB-231), the “Selectivity index (SI) 184B5 versus MDA-MB-231” value is given as 0.62. In addition, in the test on MDA-MB-231 (Table 2B, non-cancer MCF10A vs cancer MDA-MB-231), the “Selectivity index (SI) MCF10A versus MDA-MB-231” value came out at 0.93. Further, the “Selectivity index (SI) 184B5 versus MCF7” value with MCF7 (Table 2B, non-cancer 184B5 vs cancer MCF7) is recorded as 0.38. The “Selectivity index (SI) MCF10A versus MCF7” value in the test on MCF7 (Table 2B, non-cancer MCF10A vs cancer MCF7) was determined as 0.57. Moreover, the “Selectivity index (SI) 184B5 versus HeLa” value in the test with HeLa (Table 2B, non-cancer 184B5 vs cancer HeLa) is recorded as 0.94. Moreover, the “Selectivity index (SI) MCF10A versus HeLa” value in the test with HeLa (Table 2B, non-cancer MCF10A vs cancer HeLa) turned out to be 1.40. Moreover, in the test with HeLa (ratio of IC50), the “Increase in effectiveness compared with stephanine (3), HeLa” value is reported as 2 fold. The “SI W2 184B5” value in test [2] (Table 3, selectivity index between 184B5 and parasites W2) turned out to be 0.007. Further, the “SI 3D7 184B5” value in test [3] (Table 3, selectivity index between 184B5 and parasites 3D7) was 0.026. In test [3] (Table 3, selectivity index between MCF10A and parasites 3D7), the “SI 3D7 MCF10A” value was 0.039.
